We go through 12 compounds from patent US20250114460A1, “NOVEL PLK1 DEGRADATION INDUCING COMPOUND” (UPPTHERA, INC., priority 2021, published 2025).

What all share (format): cell-based
In one assay the test system is MRC-5 cell line. In words: Cell viability assay for MRC-5 cell line (EZ-Cytox). Conditions: Homo sapiens, MRC5, 120 h; MRC-5 normal cell line, 5 days, 10000 nM to 1.52 nM; N.D. = no cytotoxicity until 10 μM; read-out: Activity: IC50 value of Exemplary Compound to MRC-5 cell line. As to the method: 4. Cell Viability Assay for MRC-5 Cell Line
(1) Culture of MRC-5 Cell Line
Passage of cultured cells was maintained within P15.
(2) Treatment of Compounds of the Present Invention
Then, it was cultured in 37° C.
(3) Cytotoxicity Experiment
CO2 incubator for 4 hours.

In a further assay the test system is NCI-H526 cell line. In words: Cell viability assay for H526 cell (EZ-Cytox). The following applies: Homo sapiens, NCI-H526, 120 h; H526 cells, 5 days, 3000 nM to 0.46 nM. The gist of the method:
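NCI-H526 cells were exposed to compound in CO2 incubator culture for 5 days. Viability was read by EZ-Cytox absorbance at 450 nm after 3 min shaking, giving IC50 values.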

Another assay has as its target T1, PLK1 (Homo sapiens, UniProt P53350).
T1 construct: endogenous in cells; host or cells: HeLa LgBit (Plk1-HiBit KI): HeLa stably expressing LgBit, with a CRISPR/Cas9 knock-in of HiBit at the endogenous PLK1 locus
In words: Luciferase assay for PLK1 in HeLa LgBit (Plk1-HiBit KI) cell line. Conditions: 300 nM compound, luminescence after 9 hours. The gist of the method: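 HeLa cells stably expressing LgBit, with HiBit knocked in at the C-terminus of endogenous Plk1, released from a 24 h 2 mM thymidine block and grown 18 h. Endurazine added, then compound at 300 nM; luminescence tracked in real time, expressed as ratio to DMSO.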
(In general: HiBiT is a short tag that completes a luciferase, so light tracks the accessible tagged protein.)

T1 sequence (P53350 whole entry): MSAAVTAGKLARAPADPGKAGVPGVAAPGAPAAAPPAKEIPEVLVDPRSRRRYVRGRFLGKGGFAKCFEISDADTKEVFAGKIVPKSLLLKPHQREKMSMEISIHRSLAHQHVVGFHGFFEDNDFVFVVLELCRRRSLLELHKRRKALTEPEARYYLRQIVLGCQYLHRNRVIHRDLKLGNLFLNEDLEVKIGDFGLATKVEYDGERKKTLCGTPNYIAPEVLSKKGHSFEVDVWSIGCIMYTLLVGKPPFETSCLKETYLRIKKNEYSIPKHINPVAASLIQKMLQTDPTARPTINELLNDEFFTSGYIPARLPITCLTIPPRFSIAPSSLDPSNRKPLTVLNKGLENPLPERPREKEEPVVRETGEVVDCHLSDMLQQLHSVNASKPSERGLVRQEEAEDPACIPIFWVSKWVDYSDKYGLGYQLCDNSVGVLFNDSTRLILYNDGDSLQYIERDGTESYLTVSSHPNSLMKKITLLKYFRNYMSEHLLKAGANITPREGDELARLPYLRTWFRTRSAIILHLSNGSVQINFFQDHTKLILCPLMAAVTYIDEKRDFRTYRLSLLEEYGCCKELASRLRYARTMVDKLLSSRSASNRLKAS

Regarding `COc1cc(C(=O)NN2CCN(C3CN(c4ccc5c(c4)C(=O)N(C4CCC(=O)NC4=O)C5=O)C3)CC2)ccc1Nc1ncc2c(n1)N(C1CCCC1)CC(F)(F)C(=O)N2C` (stereo not drawn) [Compound 201, 4-((9-cyclopentyl-7,7-difluoro-5-methyl-6-oxo-6,7,8,9-tetrahydro-5H-pyrimido[4,5-b][1,4]diazepin-2-yl)amino)-N-(4-(1-(2-(2,6-dioxopiperidin-3-yl)-1,3-dioxoisoindolin-5-yl)azetidin-3-yl)piperazin-1-yl)-3-methoxybenzamide], the IC50 – broadly, the concentration that gives 50% inhibition – in the assay on MRC-5 cell line was greater than 10 µM; in the assay on NCI-H526 cell line, less than 0.05 µM. Moreover, the “Activity: ratio of the luminescense value of each Exemplary Compound treatment group to DMSO treatment group” value (“Activity: ratio” for short) at PLK1 was “+++ (+++: <0.3)”.
On to `COc1cc(C(=O)NC2CCN(C(=O)CC3CN(c4ccc5c(c4)C(=O)N(C4CCC(=O)NC4=O)C5=O)C3)CC2)c(F)cc1Nc1ncc2c(n1)N(C1CCCC1)CC(F)(F)C(=O)N2C` (stereo not drawn) [Compound 205, 4-((9-cyclopentyl-7,7-difluoro-5-methyl-6-oxo-6,7,8,9-tetrahydro-5H-pyrimido[4,5-b][1,4]diazepin-2-yl)amino)-N-(1-(2-(1-(2-(2,6-dioxopiperidin-3-yl)-1,3-dioxoisoindolin-5-yl)azetidin-3-yl)acetyl)piperidin-4-yl)-2-fluoro-5-methoxybenzamide], for which the IC50 in the assay on MRC-5 cell line is greater than 10 µM; in the assay with NCI-H526 cell line, less than 0.05 µM. In addition, the “Activity: ratio” value on PLK1 is “++ (++<0.6)”.
For `COc1cc(C(=O)NC2CCN(C3CC4(CCN(c5cccc6c5C(=O)N(C5CCC(=O)NC5=O)C6=O)CC4)C3)CC2)c(F)cc1Nc1ncc2c(n1)N(C1CCCC1)CC(F)(F)C(=O)N2C` (stereo not drawn) [Compound 208, 4-((9-cyclopentyl-7,7-difluoro-5-methyl-6-oxo-6,7,8,9-tetrahydro-5H-pyrimido[4,5-b][1,4]diazepin-2-yl)amino)-N-(1-(7-(2-(2,6-dioxopiperidin-3-yl)-1,3-dioxoisoindolin-4-yl)-7-azaspiro[3.5]nonan-2-yl)piperidin-4-yl)-2-fluoro-5-methoxybenzamide], in that order: greater than 10 µM, less than 0.1 µM and “++ (++<0.6)”.
For `COc1cc(C(=O)NN2CCC(N3CC4(CCN(c5cccc6c5C(=O)N(C5CCC(=O)NC5=O)C6=O)CC4)C3)CC2)c(F)cc1Nc1ncc2c(n1)N(C1CCCC1)CC(F)(F)C(=O)N2C` (stereo not drawn) [Compound 209, 4-((9-cyclopentyl-7,7-difluoro-5-methyl-6-oxo-6,7,8,9-tetrahydro-5H-pyrimido[4,5-b][1,4]diazepin-2-yl)amino)-N-(4-(7-(2-(2,6-dioxopiperidin-3-yl)-1,3-dioxoisoindolin-4-yl)-2,7-diazaspiro[3.5]nonan-2-yl)piperidin-1-yl)-2-fluoro-5-methoxybenzamide], in that order: 5.31 µM, less than 0.05 µM and “++ (++<0.6)”.
For `COc1cc(C(=O)NN2CCC(N3CC4(CCN(c5cccc6c5C(=O)N(C5CCC(=O)NC5=O)C6=O)CC4)C3)CC2)c(F)cc1Nc1ncc2c(n1)N(C(C)C)CC(F)(F)C(=O)N2C` (stereo not drawn) [Compound 210, 4-((7,7-difluoro-9-isopropyl-5-methyl-6-oxo-6,7,8,9-tetrahydro-5H-pyrimido[4,5-b][1,4]diazepin-2-yl)amino)-N-(4-(7-(2-(2,6-dioxopiperidin-3-yl)-1,3-dioxoisoindolin-4-yl)-2,7-diazaspiro[3.5]nonan-2-yl)piperidin-1-yl)-2-fluoro-5-methoxybenzamide], in that order: 18.2 µM, less than 0.05 µM and “++ (++<0.6)”.
For the compound `COc1cc(C(=O)NN2CCC(N3CC4(CCN(c5cccc6c5C(=O)N(C5CCC(=O)NC5=O)C6=O)CC4)C3)CC2)ccc1Nc1ncc2c(n1)N(C1CCCC1)CC(F)(F)C(=O)N2C` (stereo not drawn) [Compound 211, 4-((9-cyclopentyl-7,7-difluoro-5-methyl-6-oxo-6,7,8,9-tetrahydro-5H-pyrimido[4,5-b][1,4]diazepin-2-yl)amino)-N-(4-(7-(2-(2,6-dioxopiperidin-3-yl)-1,3-dioxoisoindolin-4-yl)-2,7-diazaspiro[3.5]nonan-2-yl)piperidin-1-yl)-3-methoxybenzamide], the IC50 in the assay on MRC-5 cell line was greater than 10 µM; in the assay on NCI-H526 cell line, less than 0.03 µM. Besides, at PLK1, the “Activity: ratio” value is “+++ (+++: <0.3)”.
With `COc1cc(C(=O)NN2CCC(N3CC4(CCN(c5ccc6c(c5)C(=O)N(C5CCC(=O)NC5=O)C6=O)CC4)C3)CC2)ccc1Nc1ncc2c(n1)N(C1CCCC1)CC(F)(F)C(=O)N2C` (stereo not drawn) [Compound 212, 4-((9-cyclopentyl-7,7-difluoro-5-methyl-6-oxo-6,7,8,9-tetrahydro-5H-pyrimido[4,5-b][1,4]diazepin-2-yl)amino)-N-(4-(7-(2-(2,6-dioxopiperidin-3-yl)-1,3-dioxoisoindolin-5-yl)-2,7-diazaspiro[3.5]nonan-2-yl)piperidin-1-yl)-3-methoxybenzamide], the IC50 in the assay on MRC-5 cell line is greater than 10 µM; in the assay with NCI-H526 cell line it was less than 0.03 µM. Moreover, at PLK1, the “Activity: ratio” value is given as “++ (++<0.6)”.
For `COc1cc(C(=O)NN2CCC(N3CC4(CCN(c5cccc6c5C(=O)N(C5CCC(=O)NC5=O)C6=O)CC4)C3)CC2)ccc1Nc1ncc2c(n1)N(C(C)C)CC(F)(F)C(=O)N2C` (stereo not drawn) [Compound 213, 4-((7,7-difluoro-9-isopropyl-5-methyl-6-oxo-6,7,8,9-tetrahydro-5H-pyrimido[4,5-b][1,4]diazepin-2-yl)amino)-N-(4-(7-(2-(2,6-dioxopiperidin-3-yl)-1,3-dioxoisoindolin-4-yl)-2,7-diazaspiro[3.5]nonan-2-yl)piperidin-1-yl)-3-methoxybenzamide], in that order: greater than 10 µM, less than 0.03 µM and “++ (++<0.6)”.
As to `COc1cc(C(=O)N2CCC(N3CC4(CCN(c5cc6c(cc5F)C(=O)N(C5CCC(=O)NC5=O)C6=O)CC4)C3)CC2)ccc1Nc1ncc2c(n1)N(C(C)C)CC(F)(F)C(=O)N2C` (stereo not drawn) [Compound 215, 5-(2-(1-(4-((7,7-difluoro-9-isopropyl-5-methyl-6-oxo-6,7,8,9-tetrahydro-5H-pyrimido[4,5-b][1,4]diazepin-2-yl)amino)-3-methoxybenzoyl)piperidin-4-yl)-2,7-diazaspiro[3.5]nonan-7-yl)-2-(2,6-dioxopiperidin-3-yl)-6-fluoroisoindoline-1,3-dione], the IC50 with MRC-5 cell line is 16.2 µM; with NCI-H526 cell line it was less than 0.4 µM. Moreover, at PLK1, the “Activity: ratio” value was “++ (++<0.6)”.
For `COc1cc(C(=O)NN2CCC(N3CC4(CCN(c5cc6c(cc5F)C(=O)N(C5CCC(=O)NC5=O)C6=O)CC4)C3)CC2)ccc1Nc1ncc2c(n1)N(C(C)C)CC(F)(F)C(=O)N2C` (stereo not drawn) [Compound 216, 4-((7,7-difluoro-9-isopropyl-5-methyl-6-oxo-6,7,8,9-tetrahydro-5H-pyrimido[4,5-b][1,4]diazepin-2-yl)amino)-N-(4-(7-(2-(2,6-dioxopiperidin-3-yl)-6-fluoro-1,3-dioxoisoindolin-5-yl)-2,7-diazaspiro[3.5]nonan-2-yl)piperidin-1-yl)-3-methoxybenzamide], in that order: 27 µM, less than 0.2 µM and “++ (++<0.6)”.
For `COc1cc(C(=O)NN2CCC(N3CC4(CCN(c5cc6c(cc5F)C(=O)N(C5CCC(=O)NC5=O)C6=O)CC4)C3)CC2)c(F)cc1Nc1ncc2c(n1)N(C(C)C)CC(F)(F)C(=O)N2C` (stereo not drawn) [Compound 217, 4-((7,7-difluoro-9-isopropyl-5-methyl-6-oxo-6,7,8,9-tetrahydro-5H-pyrimido[4,5-b][1,4]diazepin-2-yl)amino)-N-(4-(7-(2-(2,6-dioxopiperidin-3-yl)-6-fluoro-1,3-dioxoisoindolin-5-yl)-2,7-diazaspiro[3.5]nonan-2-yl)piperidin-1-yl)-2-fluoro-5-methoxybenzamide], in that order: 16.4 µM, less than 0.4 µM and “++ (++<0.6)”.
For `COc1cc(C(=O)NN2CCC(N3CC4(CCN(c5ccc6c(c5)CN(C5CCC(=O)NC5=O)C6=O)CC4)C3)CC2)ccc1Nc1ncc2c(n1)N(C(C)C)CC(F)(F)C(=O)N2C` (stereo not drawn) [Compound 219, 4-((7,7-difluoro-9-isopropyl-5-methyl-6-oxo-6,7,8,9-tetrahydro-5H-pyrimido[4,5-b][1,4]diazepin-2-yl)amino)-N-(4-(7-(2-(2,6-dioxopiperidin-3-yl)-1-oxoisoindolin-5-yl)-2,7-diazaspiro[3.5]nonan-2-yl)piperidin-1-yl)-3-methoxybenzamide], in that order: 13 µM, less than 0.03 µM and “++ (++<0.6)”.
